# Measured values taken from ChEMBL document CHEMBL1146017, “Dipeptide vinyl sultams: synthesis via the Wittig-Horner reaction and activity against papain, falcipain-2 and Plasmodium falciparum” (Bioorg Med Chem Lett, 2006).
# The source made the active and inactive calls. No cut-off for these calls is given here.
# Assays:
# [1] = target: T1, Falcipain 2 (Plasmodium falciparum, UniProt Q9N6S8); test: Inhibition of recombinant falcipain2
# T1 sequence (Q9N6S8 whole entry): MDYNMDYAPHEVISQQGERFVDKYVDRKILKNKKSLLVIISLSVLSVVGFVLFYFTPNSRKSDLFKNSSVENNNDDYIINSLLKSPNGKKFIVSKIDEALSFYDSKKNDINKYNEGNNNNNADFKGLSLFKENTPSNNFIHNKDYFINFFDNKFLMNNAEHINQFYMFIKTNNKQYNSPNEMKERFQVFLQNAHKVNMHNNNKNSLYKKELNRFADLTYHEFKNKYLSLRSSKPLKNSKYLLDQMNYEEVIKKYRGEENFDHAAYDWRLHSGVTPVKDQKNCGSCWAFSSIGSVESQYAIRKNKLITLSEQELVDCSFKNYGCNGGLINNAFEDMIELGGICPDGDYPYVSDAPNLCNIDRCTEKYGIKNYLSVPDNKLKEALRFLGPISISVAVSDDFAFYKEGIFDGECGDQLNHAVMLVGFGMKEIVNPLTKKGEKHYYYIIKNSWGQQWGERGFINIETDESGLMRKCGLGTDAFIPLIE
# [2] = test system: Plasmodium falciparum; test: Inhibition of Plasmodium falciparum W2; format: functional, organism-based
# [3] = target: T2, Papain (Carica papaya) (UniProt P00784); test: Inhibition of papain at 50 uM
# T2 sequence (whole entry): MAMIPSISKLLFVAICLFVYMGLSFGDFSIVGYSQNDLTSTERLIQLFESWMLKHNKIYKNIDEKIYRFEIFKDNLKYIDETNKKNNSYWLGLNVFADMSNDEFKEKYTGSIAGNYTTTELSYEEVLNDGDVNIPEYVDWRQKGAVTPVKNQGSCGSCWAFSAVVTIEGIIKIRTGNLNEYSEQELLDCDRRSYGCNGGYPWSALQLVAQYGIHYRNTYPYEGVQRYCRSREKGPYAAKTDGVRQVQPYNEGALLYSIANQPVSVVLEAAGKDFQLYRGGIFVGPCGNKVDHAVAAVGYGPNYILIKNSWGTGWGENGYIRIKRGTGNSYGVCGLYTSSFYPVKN
# [4] = target: T2, Papain (Carica papaya); test: Inhibition of papain upto 50 uM after 30 min
compound,measurement,setting,value
CC(C)C[C@H](NC(=O)N1CCOCC1)C(=O)N[C@H](/C=C1\CCCN(c2ccccc2)S1(=O)=O)Cc1ccccc1,IC50,[1],31.4 µM
same,IC50,[2],> 10 µM
CC(C)C[C@H](NC(=O)N1CCOCC1)C(=O)N[C@H](/C=C1/CCCN(Cc2ccccc2)S1(=O)=O)Cc1ccccc1,IC50,[1],23.6 µM
same,inhibition,[3],inactive
same,IC50,[2],> 10 µM
CC(C)C[C@H](NC(=O)N1CCOCC1)C(=O)N[C@H](/C=C1\CCCN(Cc2ccccc2)S1(=O)=O)Cc1ccccc1,IC50,[1],13.7 µM
same,inhibition,[3],inactive
same,IC50,[2],7.8 µM
CC(C)C[C@H](NC(=O)N1CCOCC1)C(=O)N[C@H](/C=C1\CCN(Cc2ccccc2)S1(=O)=O)Cc1ccccc1,IC50,[1],48.4 µM
same,IC50,[2],> 10 µM
CC(=O)N[C@@H](Cc1ccccc1)C(=O)N[C@H](/C=C1\CCCN(c2ccccc2)S1(=O)=O)Cc1ccccc1,IC50,[1],26.5 µM
same,inhibition,[4],inactive
same,IC50,[2],> 10 µM
CC(C)(C)OC(=O)N[C@H](/C=C1\CCCN(Cc2ccccc2)S1(=O)=O)Cc1ccccc1,inhibition,[3],inactive
